Where “and” joins values, the source holds several entries; their conditions need not be identical. Equal values may be shown once. Records with an inconclusive call do not appear.
System: BDF1 mice, colon carcinoma 38 sc, T/C %
Assay: NCI In Vivo Anticancer Drug Screen. Data for tumor model Colon Carcinoma 38 (subcutaneous) in B6D2F1 (BDF1) mice
Conditions: endpoint: median tumor weight (est.), higher = larger tumour
Procedure, shortened: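 Ratio of survival or tumor size, compound-treated animals relative to vehicle controls, in tumor-bearing mice.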

[1] = dose: 100.0 mg/kg/injection, schedule: Q07DX002 (ip), vehicle: saline with Tween-80
[2] = dose: 200.0 mg/kg/injection, schedule: Q07DX002 (ip), vehicle: saline with Tween-80

## O=C1c2ccccc2C(=O)c2c1cn1c2Cc2ccccc2C1
dose: 5.0 mg/kg/injection, schedule: Q01DX005 (iv), vehicle: other
  T/C: 36 % of control
dose: 10.0 mg/kg/injection, schedule: Q01DX005 (iv), vehicle: other
  T/C: 36 % of control
dose: 18.0 mg/kg/injection, schedule: Q07DX002 (ip), vehicle: Klucel (hydroxypropylcellulose) (HPC)
  T/C: 219 % of control
dose: 18.75 mg/kg/injection, schedule: Q07DX002 (ip), vehicle: Klucel (hydroxypropylcellulose) (HPC)
  T/C: 63 % of control
dose: 20.0 mg/kg/injection, schedule: Q01DX005 (iv), vehicle: other
  T/C: 36 % of control
dose: 37.0 mg/kg/injection, schedule: Q07DX002 (ip), vehicle: Klucel (hydroxypropylcellulose) (HPC)
  T/C: 89 % of control
dose: 37.5 mg/kg/injection, schedule: Q07DX002 (ip), vehicle: Klucel (hydroxypropylcellulose) (HPC)
  T/C: 63 % of control
dose: 40.0 mg/kg/injection, schedule: Q01DX005 (iv), vehicle: other
  T/C: 23 % of control
dose: 75.0 mg/kg/injection, schedule: Q07DX002 (ip), vehicle: Klucel (hydroxypropylcellulose) (HPC)
  T/C: 38 % of control and 41 % of control and 59 % of control
dose: 75.0 mg/kg/injection, schedule: Q07DX002 (iv), vehicle: other
  T/C: 95 % of control
dose: 100.0 mg/kg/injection, schedule: Q07DX002 (ip), vehicle: other
  T/C: 74 % of control
[1]
  T/C: 63 % of control
dose: 100.0 mg/kg/injection, schedule: Q07DX002 (iv), vehicle: other
  T/C: 120 % of control
dose: 150.0 mg/kg/injection, schedule: Q07DX002 (ip), vehicle: other
  T/C: 41 % of control
dose: 200.0 mg/kg/injection, schedule: Q07DX002 (ip), vehicle: other
  T/C: 41 % of control
[2]
  T/C: 61 % of control
dose: 300.0 mg/kg/injection, schedule: Q07DX002 (ip), vehicle: Klucel (hydroxypropylcellulose) (HPC)
  T/C: 8 % of control and 13 % of control

## Cc1cc(NCCCCCCCNc2cc(C)nc3cc(N)ccc23)c2ccc(N)cc2n1
dose: 1.56 mg/kg/injection, schedule: Q07DX002 (ip), vehicle: saline with Tween-80
  T/C: 78 % of control

## CC1OC(=O)C(C(C)C)NC(=O)C(C(C)C)OC(=O)C(C(C)C)NC(=O)C(C)OC(=O)C(C(C)C)NC(=O)C(C(C)C)OC(=O)C(C(C)C)NC(=O)C(C)OC(=O)C(C(C)C)NC(=O)C(C(C)C)OC(=O)C(C(C)C)NC1=O (stereo not given)
dose: 2.5 mg/kg/injection, schedule: Q07DX003 (ip), vehicle: saline with Tween-80
  T/C: 71 % of control and 90 % of control
dose: 5.0 mg/kg/injection, schedule: Q07DX003 (ip), vehicle: saline with Tween-80
  T/C: 79 % of control
dose: 40.0 mg/kg/injection, schedule: Q07DX003 (ip), vehicle: saline with Tween-80
  T/C: 37 % of control

## CN(C)CCN(C)CC(C)(C)C(=O)/C=C/c1ccccc1
dose: 31.25 mg/kg/injection, schedule: Q07DX002 (ip), vehicle: saline
  T/C: 119 % of control
dose: 62.5 mg/kg/injection, schedule: Q07DX002 (ip), vehicle: saline
  T/C: 11 % of control
dose: 125.0 mg/kg/injection, schedule: Q07DX002 (ip), vehicle: saline
  T/C: 52 % of control

## CC1(C)OC(=O)N(CO)C1=O
dose: 12.5 mg/kg/injection, schedule: Q07DX002 (ip), vehicle: saline
  T/C: 162 % of control
dose: 25.0 mg/kg/injection, schedule: Q07DX002 (ip), vehicle: saline
  T/C: 94 % of control
dose: 50.0 mg/kg/injection, schedule: Q07DX002 (ip), vehicle: saline
  T/C: 120 % of control and 123 % of control
dose: 400.0 mg/kg/injection, schedule: Q07DX002 (ip), vehicle: saline
  T/C: 257 % of control

## Nc1cc2c3c(cccc3c1)C(=O)N(CCN1CCCC1)C2=O
dose: 15.0 mg/kg/injection, schedule: Q07DX002 (ip), vehicle: saline with Tween-80
  T/C: 75 % of control
dose: 25.0 mg/kg/injection, schedule: Q07DX002 (ip), vehicle: saline with Tween-80
  T/C: 117 % of control
dose: 30.0 mg/kg/injection, schedule: Q07DX002 (ip), vehicle: saline with Tween-80
  T/C: 83 % of control
dose: 50.0 mg/kg/injection, schedule: Q07DX002 (ip), vehicle: saline with Tween-80
  T/C: 152 % of control
dose: 60.0 mg/kg/injection, schedule: Q07DX002 (ip), vehicle: saline with Tween-80
  T/C: 73 % of control
[1]
  T/C: 90 % of control
dose: 120.0 mg/kg/injection, schedule: Q07DX002 (ip), vehicle: saline with Tween-80
  T/C: 62 % of control
[2]
  T/C: 28 % of control

## O=C1c2ccccc2C(=O)c2c(NCCNCCO)ccc(O)c21
dose: 5.0 mg/kg/injection, schedule: Q07DX002 (ip), vehicle: suspension in saline
  T/C: 79 % of control and 95 % of control
dose: 10.0 mg/kg/injection, schedule: Q07DX002 (ip), vehicle: suspension in saline
  T/C: 94 % of control and 99 % of control
dose: 40.0 mg/kg/injection, schedule: Q07DX002 (ip), vehicle: suspension in saline
  T/C: 90 % of control and 96 % of control and 106 % of control
dose: 320.0 mg/kg/injection, schedule: Q07DX002 (ip), vehicle: suspension in saline
  T/C: 74 % of control

Reference: PubChem BioAssay AID212 (DTP/NCI, 2004)
